Values belong to the compound of their own block, whether it stands above or below them. Calls of active or inactive are those of the source. No cut-off for these calls is given here.
What was measured:
[1] = molecular target: T1, Ribonucleoside-diphosphate reductase large subunit (Homo sapiens, UniProt P23921); assay: Inhibition of human RRM1 expressed in Escherichia coli BL21-codon plus(DE3)-RIL using [14C]-ADP as substrate after 3 mins by liquid scintillation counting method
T1 sequence (P23921 whole entry): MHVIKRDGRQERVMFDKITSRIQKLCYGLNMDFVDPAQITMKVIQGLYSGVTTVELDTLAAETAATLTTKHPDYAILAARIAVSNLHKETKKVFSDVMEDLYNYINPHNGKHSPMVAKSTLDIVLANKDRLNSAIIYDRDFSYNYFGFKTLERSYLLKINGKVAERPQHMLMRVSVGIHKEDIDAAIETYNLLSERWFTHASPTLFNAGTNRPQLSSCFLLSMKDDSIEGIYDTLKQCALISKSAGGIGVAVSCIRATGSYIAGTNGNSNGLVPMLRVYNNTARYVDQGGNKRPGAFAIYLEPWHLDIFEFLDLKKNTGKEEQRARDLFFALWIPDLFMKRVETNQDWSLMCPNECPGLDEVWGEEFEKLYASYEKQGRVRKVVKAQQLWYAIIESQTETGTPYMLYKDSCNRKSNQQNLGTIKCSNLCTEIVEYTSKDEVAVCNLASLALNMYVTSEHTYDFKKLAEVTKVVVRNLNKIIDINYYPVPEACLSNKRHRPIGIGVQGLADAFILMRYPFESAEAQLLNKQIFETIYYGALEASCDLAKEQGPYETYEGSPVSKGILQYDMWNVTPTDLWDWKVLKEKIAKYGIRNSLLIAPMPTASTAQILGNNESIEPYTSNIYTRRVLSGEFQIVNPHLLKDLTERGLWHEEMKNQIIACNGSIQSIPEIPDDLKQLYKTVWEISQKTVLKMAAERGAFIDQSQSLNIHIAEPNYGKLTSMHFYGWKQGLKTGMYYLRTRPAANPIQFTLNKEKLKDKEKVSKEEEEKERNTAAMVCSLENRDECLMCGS

MDA-MB-231 [2] = assay: cells; conditions: Homo sapiens, MDA-MB-231, 72 h
[3] = molecular target: T2, Ribonucleoside-diphosphate reductase subunit M2 (Homo sapiens, UniProt P31350); assay: Inhibition of human RRM2 expressed in Escherichia coli BL21-codon plus(DE3) using [14C]-ADP as substrate after 3 mins by liquid scintillation counting method
T2 sequence (P31350 whole entry): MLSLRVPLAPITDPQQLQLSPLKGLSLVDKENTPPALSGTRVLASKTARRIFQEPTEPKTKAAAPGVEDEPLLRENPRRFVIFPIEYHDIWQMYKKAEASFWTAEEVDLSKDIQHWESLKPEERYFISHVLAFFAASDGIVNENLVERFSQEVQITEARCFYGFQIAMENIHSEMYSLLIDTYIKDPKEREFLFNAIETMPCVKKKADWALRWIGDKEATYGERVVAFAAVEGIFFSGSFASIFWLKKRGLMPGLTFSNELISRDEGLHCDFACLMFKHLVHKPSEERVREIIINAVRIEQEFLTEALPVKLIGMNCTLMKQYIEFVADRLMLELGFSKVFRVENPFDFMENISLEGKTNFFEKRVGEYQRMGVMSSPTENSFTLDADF

[4] = Metal chelating activity in pH 7 ammonium acetate buffer assessed as Fe2+-compound complex formation at compound to metal ratio of 1:4 to 1:50 under anaerobic condition by UV spectroscopic method; type: functional
MDA-MB-231 [5] = assay: cells; conditions: Homo sapiens, MDA-MB-231, 120 h
[6] = Metal chelating activity in pH 7 ammonium acetate buffer assessed as Mg2+-compound complex formation at compound to metal ratio of 1:1 to 1:10 under anaerobic condition by UV spectroscopic method; type: functional
MDA-MB-231 [7] = assay: cells; conditions: Homo sapiens, MDA-MB-231, 120 h; remark: listed apart in the source
MDA-MB-231 [8] = assay: cells; conditions: Homo sapiens, MDA-MB-231, 120 h; remark: listed apart in the source
MDA-MB-231 [9] = assay: cells; conditions: Homo sapiens, MDA-MB-231, 120 h; remark: listed apart in the source
[10] = Metal chelating activity in pH 7 ammonium acetate buffer assessed as Fe3+-compound complex formation at compound to metal ratio of 1:1 to 1:50 under anaerobic condition by UV spectroscopic method; type: functional

IC50 [1]: 687 µM
SMILES: COc1cc(/C=N/N=C/c2c(O)ccc3ccccc23)ccc1O

IC50 (MDA-MB-231 [2]): 0.03 to 0.1 µM
SMILES: Nc1ccn([C@@H]2O[C@H](CO)[C@@H](O)C2(F)F)c(=O)n1 [GEMCITABINE]

IC50 [1]: 120 µM
SMILES: O=C(N/N=C/c1c(O)ccc2ccccc12)OCc1ccccc1

IC50 (MDA-MB-231 [5]): 1.94 µM | IC50 (MDA-MB-231 [7]): 1.43 µM | IC50 (MDA-MB-231 [8]): 0.347 µM | IC50 [3]: 123 µM | IC50 (MDA-MB-231 [9]): 1.49 µM
SMILES: O=C(N/N=C/c1c(O)ccc2ccccc12)c1ccccc1O
Activity [4]: Active | Activity [6]: inactive | Activity [10]: inactive

The next lines start with the compound.

SMILES: NC(=S)N/N=C/c1ncccc1N [TRIAPINE]
IC50 [3]: 0.185 µM

SMILES: O=S(=O)(Cc1ccccc1)N/N=C/c1c(O)ccc2ccccc12
IC50 [1]: 131 µM

Source: ChEMBL document CHEMBL4024782, “Structure-Guided Synthesis and Mechanistic Studies Reveal Sweetspots on Naphthyl Salicyl Hydrazone Scaffold as Non-Nucleosidic Competitive, Reversible Inhibitors of Human Ribonucleotide Reductase” (J Med Chem, 2018)
